Reference: patent publication US20250332154A1, “USE OF NAPHTHOQUINE PHOSPHATE IN PREPARATION OF A MEDICAMENT FOR TREATING AUTOIMMUNE DISEASES” (SHANGHAI PHARMACEUTICALS INDUSTRY CO., LTD, priority 2022, published 2025)
pIC50: −log10 of the molar value.

How the values were obtained:
IL-1β = IL-1β production by LPS-induced RAW264.7 cells (ELISA); assay type: cell-based, mouse
Protocol: (§1) RAW264.7 cells were inoculated into a 96-well plate at 1×10^5/well and allowed to adhere to the wall for 6 hours in a 37° C., 5% CO2 incubator. […] After the cells adhered to the wall, the stimulant LPS (final concentration: 10 μg/ml) and the gradient-diluted compounds were added. A corresponding stimulation control and a cell control (without stimulation) were set up. After the end of the culture, the cell culture supernatants were collected, and the levels of TNF-α, IL-1β and IL-6 were measured by ELISA.

RAW264.7 cells = test: Non-specific cytotoxicity assay (MTT), RAW264.7; assay type: cell-based, mouse; settings: 48 hours
Protocol: RAW264.7 cells were inoculated into a 96-well plate at 1×10^5/well and allowed to adhere to the wall for 6 hours in a 37° C., 5% CO2 incubator. […] A corresponding solvent control (cell control) and a culture medium background control (blank control) were set up. The cells were cultured in a 37° C., 5% CO2 incubator for 48 hours. Fifteen minutes before the end of the culture, 20 μl of 5 mg/ml MTT was added. At the end of the culture, the supernatant was aspirated and discarded, 200 μl DMSO was added to dissolve the crystals.

IL-6 = IL-6 production by LPS-induced RAW264.7 cells (ELISA); assay type: cell-based, mouse
Protocol: as §1

TNF-α = TNF-α production by LPS-induced RAW264.7 cells (ELISA); assay type: cell-based, mouse
Protocol: as §1

[1] = test system: mouse whole spleen lymphocytes (ConA-induced T cell activation and proliferation); test: ConA-induced lymphocyte proliferation assay (3H-thymidine); assay type: cell-based; settings: Mus musculus, Lymphocyte, read-out: ConA IC50
Protocol: (§2) BALB/c mice were sacrificed by cervical dislocation, and spleens were aseptically excised to prepare whole spleen lymphocytes. The cells were adjusted to the required concentration.
(§3) A suspension of mouse spleen lymphocytes was inoculated into a 96-well plate at 5×10^5/well, and ConA (final concentration: 1 μg/ml) or LPS (final concentration: 10 μg/ml) and the above 10 concentration gradients of the compound were added. Corresponding cell control wells without ConA and LPS, as well as medicament-free stimulated control wells, were set up. The cells were cultured in a 37° C., 5% CO2 incubator for 48 hours. Eight hours before the end of the culture, ^3H-thymidine was added, and the culture continued until the end of the experiment (i.e., the aforementioned 48 hours). The cells were collected onto glass fiber membranes using a cell collector.
(§4) ConA and LPS, as mitogens, stimulated proliferation and differentiation of T and B lymphocytes, respectively. This process is similar to the activation process of lymphocytes in vivo. Therefore, mitogen-induced lymphocyte proliferation is commonly used as an indicator to evaluate functionality of lymphocytes.

[2] = Non-specific cytotoxicity assay (MTT), mouse spleen lymphocytes; assay type: cell-based; settings: BALB/c, mouse, mouse whole spleen lymphocytes
Protocol: BALB/c mice were sacrificed by cervical dislocation, and spleens were aseptically excised to prepare whole spleen lymphocytes. The cells were adjusted to the required concentration. The compound concentrations started at 250 μM and was diluted with a 4-fold gradient to obtain 10 concentrations: 250, 62.5, 15.625, 3.906, 0.977, 0.244, 0.061, 0.015, 0.004 and 0.001 μM.
A suspension of mouse spleen lymphocytes was inoculated into a 96-well plate at 8×10^5/well, and the above 10 concentration gradients of the compound were added. A corresponding cell control (i.e. spleen lymphocyte culture system without compound) and a RPMI 1640 culture medium background control (blank culture medium control) were set up. The cells were cultured in a 37° C., 5% CO2 incubator for 48 hours. Four hours before the end of the culture, 20 μl of 5 mg/ml MTT solution was added, and the reaction continued until the end of the culture (i.e. the aforementioned 48 hours). The supernatant was aspirated and discarded, 200 μl DMSO was added to each well to dissolve the crystals. […]. The absorbance value was measured at […] with a microplate reader (Spectra Max 190, Molecular Devices).

[3] = test system: mouse whole spleen lymphocytes (LPS-induced B cell activation and proliferation); test: LPS-induced lymphocyte proliferation assay (3H-thymidine); assay type: cell-based; settings: Mus musculus, Lymphocyte, read-out: LPS IC50
Protocol: as §2, §3, §4

Molecule | pIC50 (IL-1β; LPS 10 μg/ml, RAW264.7, read-out: IB-1β IC50) | production of LPS-induced IL-1β (IL-1β; RAW264.7, in words) | CC50 (RAW264.7 cells) [µM] | pIC50 (IL-6; LPS 10 μg/ml, RAW264.7) | production of IL-6 (IL-6; LPS-induced RAW264.7, in words) | pIC50 (TNF-α; LPS 10 μg/ml, RAW264.7) | production of TNF-α (TNF-α; LPS-induced RAW264.7, in words) | pIC50 [1] | CC50 at 48 h [2] [µM] | pIC50 [3]
Chloroquine Sulfate | 5.57 | significantly inhibited | 26.6 | 4.83 | no significant effect | 4.49 | no significant effect | – | – | –
CCN(CC)CCCC(C)Nc1ccnc2cc(Cl)ccc12 (stereo not shown) [Chloroquine Phosphate] | – | – | – | – | – | – | – | 4.84 | 26.9 | 4.82
